Results taken from patent publication US12055546B2, “Fluorescent probe for detecting carboxypeptidase activity” (THE UNIVERSITY OF TOKYO, priority 2018, dated 2024).

What was measured:
[1] = system: Cc1ccc(/N=N/C(=O)N[C@@H](CCC(=O)O)C(=O)O)cc1-c1c2ccc(=O)cc-2oc2cc(O)ccc12; experiment: Reactivity with PSMA purified enzyme (Example 6); format: biochemical, human; settings: other: apparent dynamic parameter, PSMA added to various probe concentrations, Table 4; 37.0 °C
[2] = Absorption/fluorescence spectrum measurement; format: physicochemical; settings: for Absorption maximum (nm) / Fluorescence maximum (nm) / Quantum yield: 200 mM phosphate buffer (pH 7.4); for Fluorescence under physiological conditions: as compared to fluorescein
Method: The absorption spectrum was measured using UV-2450 (SIMADZU), and the fluorescence spectrum was measured using F-7000 (HITACHI).
FIG. 9 and FIG. 10 illustrate the results of the absorption/fluorescence spectrum measurement of 2Me5GluAF-TG (Compound 32). […] The absorption spectrum was measured using UV-2450 (SIMADZU), and the fluorescence spectrum was measured using F-7000 (HITACHI).

PSMA [3] = target: T1, PSMA (Homo sapiens, UniProt Q04609); experiment: Enzyme assay with PSMA (Example 2), fluorescence spectrum and Michaelis-Menten plot; format: biochemical; settings: for Fluorescence rise due to enzymatic reaction with PSMA: 10 μM probe, 0.44 μg PSMA, 37° C., 15 hours
T1 sequence (Q04609 whole entry): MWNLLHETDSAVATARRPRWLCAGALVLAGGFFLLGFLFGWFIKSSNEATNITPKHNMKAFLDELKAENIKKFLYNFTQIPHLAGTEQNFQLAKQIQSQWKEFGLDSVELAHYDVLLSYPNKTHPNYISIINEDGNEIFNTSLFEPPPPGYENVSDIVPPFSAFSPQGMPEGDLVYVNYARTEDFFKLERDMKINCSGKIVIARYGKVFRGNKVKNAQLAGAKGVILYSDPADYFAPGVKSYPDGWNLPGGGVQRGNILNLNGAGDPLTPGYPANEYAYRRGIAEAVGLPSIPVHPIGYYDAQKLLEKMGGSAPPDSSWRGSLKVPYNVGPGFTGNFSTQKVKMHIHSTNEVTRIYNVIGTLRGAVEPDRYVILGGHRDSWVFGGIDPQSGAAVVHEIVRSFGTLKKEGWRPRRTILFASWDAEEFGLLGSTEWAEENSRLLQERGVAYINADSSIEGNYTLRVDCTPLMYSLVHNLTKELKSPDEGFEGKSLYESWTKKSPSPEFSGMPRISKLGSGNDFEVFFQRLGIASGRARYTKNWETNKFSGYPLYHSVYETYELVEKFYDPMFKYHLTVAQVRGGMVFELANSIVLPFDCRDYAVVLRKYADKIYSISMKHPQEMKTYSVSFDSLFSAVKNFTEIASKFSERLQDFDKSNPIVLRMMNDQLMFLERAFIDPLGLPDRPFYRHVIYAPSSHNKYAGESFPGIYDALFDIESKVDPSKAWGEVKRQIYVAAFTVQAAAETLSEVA
Method: A change in the fluorescence spectrum due to the enzymatic reaction was measured as follows. The reactivity of 6-fluAFGlu to PSMA was evaluated by creating a Michaelis-Menten plot. • (1) Two solutions prepared by dissolving 10 μM probe in 200 μL of each assay buffer were provided. • (Assay buffer: 50 mM HEPES, 100 mM NaCl, pH 7.5) • (2) 0.44 μg of PSMA was added to each and incubated at 37° C. for 15 hours. For one of the solutions, a PSMA specific inhibitor 2-(Phosphonomethyl)-pentandioic acid (2-PMPA) (final concentration 10 μM) was also added at the same time and incubated at 37° C. for 15 hours. • (3) Each solution after the incubation in (2) was diluted to 2800 μL with 200 mM Na-Pi buffer, and the fluorescence spectrum was measured.
FIG. 1 illustrates the fluorescence spectrum of 5-fluAFGlu and 6-fluAFGlu after addition of PSMA and an inhibitor (2-PMPA, 10 μM) (S/N to 417 at 516 nm).

PSMA [4] = target: T1, PSMA; experiment: Reactivity with PSMA purified enzyme (Example 6); format: biochemical
[5] = system: LNCaP cell lysate (PSMA expressing prostate cancer cell); experiment: Cell lysate assay, LNCaP; format: biochemical; settings: probe 10 μM, 37° C.; for Increase in fluorescence in LNCaP cell lysate with inhibitor: 2-PMPA 10 μM
Method: (§1) A PSMA specific inhibitor 2-PMPA (10 μM) was added to one of LNCaP cell lysate samples at the same time, and measurement was performed. • (2) The obtained fluorescence intensity of each lysate was normalized based on 0 minutes being set to 1, and then plot was performed with the incubation time on the horizontal axis.
(§2) A solution (20 μM, 100 μL) of 2Me5GluAF-TG (Compound 32) and a cell lysate (0.36 mg/mL, 100 μL) were reacted in TBS-T buffer at 37° C., and the fluorescence intensity was measured every 30 minutes. The measurement procedure is as described in Example 3.
(§3) Ex/em: 485/535 nm, n=3, probe final concentration: 10 μM, inhibitor (2-PMPA) concentration: 10 μM

[6] = system: PC3 cell lysate (PSMA non-expressing prostate cancer cell); experiment: Cell lysate assay, PC3; format: biochemical; settings: probe 10 μM, 37° C.
Method: as §1, §2, §3

[7] = system: LNCaP cells (high PSMA expression); experiment: Live cell imaging, LNCaP cells (confocal microscope); format: cell-based
Method: (§4) A solution (final concentration: 10 μM) of 2Me5GluAF-TG (Compound 32) diluted with HBSS(+) was added to LNCaP cells (high PSMA expression) or PC3 cells (PSMA non-expression), and a fluorescence image was taken by a confocal microscope every 1 hour under the following conditions while culturing at 37° C. and 5% CO2.
A probe (2Me5GluAF-TG) and an inhibitor were added, and after culturing at 37° C. and 5% CO2 for 15 hours, a fluorescence image was taken with a confocal microscope. Probe concentration: 10 μM, inhibitor (2-PMPA) concentration: 10 μM, Ex/em: 490/500-600 nm, Scale bar: 50 μm.
Ten intracellular regions and ten extracellular regions were each surrounded by ROI, and an average value of the fluorescence intensity was calculated. FIG. 18a illustrates the taken fluorescence image, and FIG. 18b illustrates the average value of the fluorescence intensity with and without addition of the inhibitor.

[8] = system: PC3 cells (PSMA non-expression); experiment: Live cell imaging, PC3 cells (confocal microscope); format: cell-based; settings: probe 10 μM in HBSS(+), image every 1 hour
Method: as §4

PSMA [9] = target: T1, PSMA; experiment: LC-UV/MS analysis of PSMA reaction solution; format: biochemical; settings: 10 hours
Method: A solution, prepared after recombinant human PSMA and 2Me5GluAF-TG (Compound 32) were reacted for 10 hours, and 2Me5GluAF-TG and 2MeTG synthesized as preparations were subjected to LC-UV/MS analysis.
Probe concentration: 10 μM (2Me5GluAF-TG, enzyme reaction solution), 2 μM (2MeTG). The results are illustrated in FIG. 13 and FIG. 14.

LNCaP cells = experiment: LC-UV/MS analysis of extracellular fluid after LNCaP imaging; format: cell-based
Method: After imaging of LNCaP cells using 2Me5GluAF-TG, a collected extracellular fluid, and 2Me5GluAF-TG and 2MeTG synthesized as preparations were subjected to the LC-MS analysis under the following conditions.
Probe concentration: 10 μM (2Me5GluAF-TG, extracellular fluid), 2 μM (2MeTG).

[10] = system: human prostate cancer surgical specimen; experiment: Study using human prostate cancer surgical specimen; settings: 2.50 μM probe solution in 1×TBS, 40° C., up to 4 hours
Method: • 1. Wash surgical specimen with 1×TBS buffer • 2. Add dropwise 2.50 μM of 2Me5GluAF-TG solution (diluted with 1×TBS buffer) so that the whole specimen is immersed. • 3. While heating to 40° C. with a heater, take a fluorescence image by Maestro for up to 4 hours • 4. Judge from the fluorescence image taken 4 hours after immersion, select and cut out several sites showing bright fluorescence and several sites showing no fluorescence, and fix with a 10% formalin solution • 5. Request a pathologist to perform HE staining/PSMA immunostaining on each site and evaluate a rate of cancer sites and PSMA expression
The results of using four types of specimens are illustrated in FIG. 21 to FIG. 24. FIG. 25 illustrates a result obtained by changing the above protocol (changing a method so that a surface is covered with gauze soaked in a probe solution, temporarily removing the gauze, and taking a fluorescence image). • (a) of each figure illustrates a photograph before immersion of the surgical specimen in a Me5GluAF-TG solution and a photograph taken 4 hours after the immersion (the right side is a fluorescence image). The graph on the left side of (b) illustrates a change in fluorescence intensity at a selected site of the surgical specimen from the immersion in the Me5GluAF-TG solution to 4 hours after the immersion. […]

[11] = system: LNCaP (PSMA expressing cell); experiment: Live cell assay on 96-well plate (plate reader); format: cell-based
Method: LNCaP as a PSMA expressing cell and PC3 as a PSMA non-expressing cell were cultured on a 96-well plate, a 10 μM aqueous solution of 6-fluAFGlu (Compound 25) was added thereto, and the cells were observed over time.

carboxypeptidase A (CPA) = target: T2, carboxypeptidase A (CPA) (Homo sapiens, UniProt P15085); experiment: Enzyme assay with CPA; format: biochemical
T2 sequence (P15085 111-419): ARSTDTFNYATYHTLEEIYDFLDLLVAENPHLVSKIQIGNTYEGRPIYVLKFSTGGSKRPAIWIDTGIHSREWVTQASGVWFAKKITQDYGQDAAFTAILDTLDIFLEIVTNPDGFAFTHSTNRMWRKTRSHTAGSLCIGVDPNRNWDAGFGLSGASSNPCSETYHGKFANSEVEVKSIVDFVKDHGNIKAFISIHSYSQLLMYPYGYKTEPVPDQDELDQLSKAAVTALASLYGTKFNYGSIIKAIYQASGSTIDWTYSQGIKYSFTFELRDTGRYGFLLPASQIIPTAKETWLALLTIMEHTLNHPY
Method: • (1) First to third solutions prepared by dissolving 10 μM probe in 600 μL of each assay buffer were provided. • (Assay buffer: Tris-buffered saline (TBS)) (2) 2 μg of CPA was activated with 18 μL of 5 ng/mL trypsine solution for 1 hour • (3) 9 μL of the solution in (2) was added to the solution in (1), and the mixture was incubated at 37° C. for 5 hours. For one of the solutions, a CPA specific inhibitor; potato carboxypeptidase inhibitor (final concentration 10 μg/mL) was also added at the same time and incubated at 37° C. for 5 hours. • (4) 200 μL of each solution after the incubation in (3) was diluted to 2800 μL with 200 mM Na-Pi […], and the fluorescence spectrum was measured.

[12] = apparent dynamic parameter with PSMA, Table 2

recombinant human PSMA (Homo sapiens)
Km [1]: 4.3 µM | kcat [1]: 0.066 s⁻¹ | kcat/Km [1]: 15300 M⁻¹ s⁻¹

O=C(O)CCC(NC(=O)N=Nc1ccc2c(c1)C(=O)OC21c2ccc(O)cc2Oc2cc(O)ccc21)C(=O)O (centres unmarked) [Compound 5-fluAFGlu]
Absorption maximum (nm) [2]: 494 nm | Fluorescence maximum (nm) [2]: 521 nm | Quantum yield [2]: 0.003 | Fluorescence under physiological conditions [2]: almost no fluorescencence | Fluorescence rise due to enzymatic reaction with PSMA (PSMA [3]): only in 6-fluAFGlu

Cc1ccc(/N=N/C(=O)N[C@@H](CCC(=O)O)C(=O)O)cc1-c1c2ccc(=O)cc-2oc2cc(O)ccc12 [Compound 2Me5GluAF-TG]
Φfl ([2]; 0.2M phosphate buffer (pH 7.4)): 0.002 | λabs (nm) ([2]; Table 3): 495 nm | λem (nm) ([2]; Table 3): 516 nm | Fluorescence under physiological conditions [2]: almost no fluorescencence | Increase in fluorescence with PSMA (PSMA [4]; 10 μM probe, 0.44 μg PSMA, 1×TBS, 37° C.): the increase in fluorescence due to the enzymatic reaction was observed | Increase in fluorescence with PSMA in presence of inhibitor (PSMA [4]; inhibitor 2-PMPA 10 μM): No increase in fluorescence was observed | Increase in fluorescence in LNCaP cell lysate with inhibitor [5]: almost no increase in fluorescence was observed | Increase in fluorescence in LNCaP cell lysate [5]: a significant increase in fluorescence was observed | Increase in fluorescence in PC3 cell lysate [6]: almost no increase in fluorescence was observed | Fluorescence image intensity in LNCaP cells ([7]; probe 10 μM in HBSS(+), image every 1 hour): the fluorescence intensity of the fluorescence image increased with the passage of time | Fluorescence image intensity with inhibitor ([7]; probe 10 μM, 2-PMPA 10 μM, 15 hours): the intensity of the fluorescence image does not increase | Average fluorescence intensity inside versus outside the cell ([7]; probe 10 μM, no inhibitor, 15 hours): the average value of the fluorescence intensity inside the cell is much higher than that outside the cell | Fluorescence image in PC3 cells [8]: no change was observed in the fluorescence image | Stability of the probe (LC-UV/MS) (PSMA [9]; inhibitor (2-PMPA) added or absence of PSMA): stable | Products of the reaction with PSMA (LC-UV/MS) (PSMA [9]; probe 10 μM, in the presence of PSMA): 2MeTG and 2Me5OH-TG exhibiting fluorescence in the presence of PSMA were produced | Product in extracellular fluid (LC-MS) (LNCaP cells; absence of the inhibitor (2-PMPA)): production of fluorescent 2MeTG was confirmed | Stability of the probe in extracellular fluid (LC-MS) (LNCaP cells; inhibitor added): stable | Relation of fluorescence increase to cancer site / PSMA expression [10]: a rough correlation between the increase in fluorescence intensity and the presence or absence of the cancer site or a PSMA expression level

O=C(O)CCC(NC(=O)N=Nc1ccc(C(=O)O)c(-c2c3ccc(=O)cc-3oc3cc(O)ccc23)c1)C(=O)O (centres unmarked) [Compound 6-fluAFGlu]
Absorption maximum (nm) [2]: 494 nm | Fluorescence maximum (nm) [2]: 526 nm | Quantum yield [2]: 0.002 | Fluorescence under physiological conditions [2]: almost no fluorescencence | Fluorescence rise due to enzymatic reaction with PSMA (PSMA [3]): a fluorescence rise due to an enzymatic reaction was observed | Km (PSMA [3]; [12]): 2.4 µM | kcat (PSMA [3]; [12]): 0.00055 s⁻¹ | S/N of fluorescence spectrum after addition of PSMA and inhibitor (PSMA [3]; at 516 nm, inhibitor 2-PMPA 10 μM): ~417 | Km (PSMA [4]; apparent dynamic parameter, PSMA added to various probe concentrations, Table 4): 5 µM | kcat (PSMA [4]; apparent dynamic parameter, Table 4): 0.001 s⁻¹ | Increase in fluorescence in LNCaP cell lysate with inhibitor [5]: almost no increase in fluorescence was observed | Increase in fluorescence in LNCaP cell lysate [5]: a significant increase in fluorescence was observed | Increase in fluorescence in PC3 cell lysate [6]: almost no increase in fluorescence was observed | Increase in fluorescence intensity in live LNCaP cells ([11]; 10 μM probe in TBS, compared to PC3): a significant increase in fluorescence intensity was observed in LNCaP compared to PC3 | Increase in fluorescence in live LNCaP cells with inhibitor ([11]; 10 μM probe, 2-PMPA 10 μM): significantly suppressed

O=C(N=Nc1ccc(C(=O)O)c(-c2c3ccc(=O)cc-3oc3cc(O)ccc23)c1)NC(Cc1ccccc1)C(=O)O (centres unmarked) [Compound 6-fluAFPhe]
Absorption maximum (nm) [2]: 494 nm | Fluorescence maximum (nm) [2]: 519 nm | Quantum yield [2]: 0.025 | Fluorescence under physiological conditions [2]: almost no fluorescencence | Fluorescence rise due to enzymatic reaction with CPA (carboxypeptidase A (CPA); 10 μM probe, 37° C., 5 hours): the fluorescence rise due to the enzymatic reaction was observed | S/N of fluorescence spectrum after addition of CPA1 and inhibitor (carboxypeptidase A (CPA); at 517 nm, potato carboxypeptidase inhibitor, 10 μM): ~13
